Reference: patent publication EP0564461B1, “THE USE OF ANTIBODIES TO TNF OR FRAGMENTS DERIVED THEREOF AND XANTHINE DERIVATIVES FOR COMBINATION THERAPY AND COMPOSITIONS THEREFOR” (CELLTECH THERAPEUTICS LIMITED, priority 1990, dated 1992)
Where two headings read alike, the source gives them in different places.

Experiments:
[1] = tested on: E.coli LPS induced shock; conditions: Fig 1
Experimental: In a first experiment outbred mice were divided into groups and received treatment either with a hamster anti-murine TNF antibody TN3 19.12 or with the xanthine derivative, pentoxifylline.
Each group of animals received 60mg/kg E.coli LPS by intravenous injection into a tail vein.
Those groups of animals treated with TN3 19.12 received between 0.1 and 30mg/kg of the antibody by intravenous injection of 0.1ml of liquid into the tail vein 2 hours before LPS administration.
Those groups to be treated with pentoxifylline received between 1mg/kg and 300mg/kg intravenously five minutes prior to LPS administration.
In control experiments animals received an injection of an equivalent volume of saline.
The groups received one of three different treatment as follows: • A) Control - received 60mg/kg E.coli LPS intravenously followed by saline injection; • B) Received 1mg/kg TN3 19.12 i.v. 2 hrs prior to challenge with 60mg/kg E.coli LPS i.v. and 1mg/kg pentoxifylline i.v. 5 mins prior to challenge; • C) As B) but these mice also received repeat doses of 1mg/kg pentoxifylline 24,48 and 72 hours after LPS challenge.

[2] = tested on: Salmonella abortus equi LPS induced shock; test: Salmonella abortus equi LPS induced shock model in galactosamine sensitised mice (inhibition of mortality); assay type: in vivo, C57BL mice; conditions: 100mg/kg pentoxifylline alone; Fig 5
Experimental: Similar experiments to those described above were carried out in galactosamine sensitised C57BL mice which were challenged with LPS from Salmonella abortus equi. Mortality was measured 96 hrs after the LPS challenge.

For `CC(=O)CCCCn1c(=O)c2c(ncn2C)n(C)c1=O` [pentoxifylline, 3,7-dimethyl-1-(5-oxohexyl)xanthine], the “effect on mortality (mean deaths per experiment)” value ([1]; pentoxifylline alone 1mg/kg i.v. five minutes prior to 60mg/kg E.coli LPS i.v.) was “no effect”, the “effect on mortality (mean deaths per experiment)” value ([1]; pentoxifylline alone at higher doses than 1mg/kg (up to 300mg/kg) i.v. five minutes prior to LPS) was “accelerated mortality” and the “protective effect (mortality)” value [2] was “no protective effect”.
